Results on 9 compounds are retold here after US20130157953A1, “TREATMENT OF CARDIAC CONDITIONS” (Zealand Pharma A/S, priority 2010, published 2013).

Numbered stars: 1 amine (or outer) side, 2 acyl side, 3 side chain; on linkers, the order of the positions; unused ones are H or OH. Bridge positions count the residues as written; N and C are the ends. Square brackets hold non-standard residues; d marks the D form. Side chains are listed from the residue outwards. Peptide text beside a SMILES is read from it. * marks the point of attachment. γGlu = O=C(O)[C@H](CCC(=O)[*:2])N[*:1]; Palmitoyl = CCCCCCCCCCCCCCCC(=O)*; Aib = CC(C)(N)C(=O)O

As usually defined, the EC50 is the concentration needed to bring the measured effect to its halfway point.

The target in one assay is T1, human GLP-1R (Homo sapiens, UniProt P43220).
T1 construct: expressed in transfected cells; host or cells: HEK293
Put plainly: cAMP formation in HEK293 cells expressing human GLP-1R. It counts as cell-based. Conditions: 15 min at 37° C. An excerpt:
(§1) Similarly, activation of the GLP-1 receptor by a GLP-1 agonist will stimulate cellular cAMP formation. Thus, production of cAMP in suitable cells expressing one of these two receptors can be used to monitor the relevant receptor activity.
(§2) The skilled person will be aware of suitable assay formats, and examples are provided below. […] (Where sequences of precursor proteins are referred to, it should of course be understood that assays may make use of the mature protein, lacking the signal sequence).
(§3) On the day of analysis, growth medium was removed and the cells washed once with 200 μl Tyrode buffer. Cells were incubated in […] containing increasing concentrations of test peptides, 100 μM IBMX, and 6 mM glucose for 15 min at 37° C. The reaction was stopped by addition of 25 μl 0.5 M HCl and incubated on ice for 60 min. The cAMP content was estimated using the FlashPlate® cAMP kit from Perkin-Elmer. EC50 values were estimated by computer aided curve fitting.
(In general: Changes in cAMP serve as a functional read-out for many G protein-coupled receptors.)

Another assay has as its target T2, human glucagon receptor (Homo sapiens, UniProt P47871).
T2 construct: expressed in transfected cells; host or cells: HEK293
The experiment in a line: cAMP formation in HEK293 cells expressing the human glucagon receptor. It counts as cell-based. As to conditions: 15 min at 37° C., read-out: EC50 (nM) GuR.
Excerpt: as §1, §2, §3

T2 sequence (P47871 26-477): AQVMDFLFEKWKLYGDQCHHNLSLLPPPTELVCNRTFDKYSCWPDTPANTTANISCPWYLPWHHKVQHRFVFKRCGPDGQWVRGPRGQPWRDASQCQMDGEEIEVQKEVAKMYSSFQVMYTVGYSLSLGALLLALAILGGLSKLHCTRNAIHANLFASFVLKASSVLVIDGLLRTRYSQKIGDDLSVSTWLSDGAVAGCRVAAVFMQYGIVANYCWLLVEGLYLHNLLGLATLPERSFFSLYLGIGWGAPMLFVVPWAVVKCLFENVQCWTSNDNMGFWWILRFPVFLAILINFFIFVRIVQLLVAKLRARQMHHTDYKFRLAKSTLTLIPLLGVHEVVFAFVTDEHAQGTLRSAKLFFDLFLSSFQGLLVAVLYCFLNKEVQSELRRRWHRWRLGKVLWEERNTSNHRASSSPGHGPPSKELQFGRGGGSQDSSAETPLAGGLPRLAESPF
T1 sequence (P43220 24-463): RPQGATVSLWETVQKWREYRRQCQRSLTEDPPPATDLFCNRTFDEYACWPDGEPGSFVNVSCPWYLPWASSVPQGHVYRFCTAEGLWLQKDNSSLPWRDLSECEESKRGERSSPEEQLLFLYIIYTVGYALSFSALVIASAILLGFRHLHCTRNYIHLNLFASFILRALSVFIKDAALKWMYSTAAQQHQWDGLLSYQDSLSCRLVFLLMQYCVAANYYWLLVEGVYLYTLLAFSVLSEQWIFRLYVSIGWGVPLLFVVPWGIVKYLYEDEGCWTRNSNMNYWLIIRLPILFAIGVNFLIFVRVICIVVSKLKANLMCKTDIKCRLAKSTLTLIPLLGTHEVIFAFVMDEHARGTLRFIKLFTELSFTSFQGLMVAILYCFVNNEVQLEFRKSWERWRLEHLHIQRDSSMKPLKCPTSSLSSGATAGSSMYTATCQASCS

Take `CC(C)C[C@H](NC(=O)[C@H](CC(C)C)NC(=O)[C@H](Cc1c[nH]c2ccccc12)NC(=O)[C@H](CCC(=O)O)NC(=O)[C@@H](NC(=O)[C@H](Cc1ccccc1)NC(=O)[C@H](CC(=O)O)NC(=O)[C@H](Cc1c[nH]cn1)NC(=O)[C@H](C)NC(=O)[C@H](C)NC(=O)[C@H](CCCCN)NC(=O)[C@H](CO)NC(=O)[C@H](CC(=O)O)NC(=O)[C@H](CC(C)C)NC(=O)[C@H](Cc1ccc(O)cc1)NC(=O)[C@H](CCCCN)NC(=O)[C@H](CO)NC(=O)[C@H](Cc1ccc(O)cc1)NC(=O)[C@H](CC(=O)O)NC(=O)[C@H](CO)NC(=O)[C@@H](NC(=O)[C@H](Cc1ccccc1)NC(=O)[C@@H](NC(=O)CNC(=O)[C@H](CCC(N)=O)NC(=O)C(C)(C)NC(=O)[C@@H](N)Cc1c[nH]cn1)[C@@H](C)O)[C@@H](C)O)C(C)C)C(=O)N[C@@H](CCCNC(=N)N)C(=O)N[C@@H](C)C(N)=O` [Compound 45] (H-H[Aib]QGTFTSDYSKYLDSKAAHDFVEWLLRA-NH2): the EC50 at human GLP-1R was determined as 0.08 nM; on human glucagon receptor, 0.06 nM.

On to `CCCCCCCCCCCCCCCC(=O)N[C@@H](CCC(=O)NCCCC[C@H](NC(=O)[C@H](C)NC(=O)[C@H](C)NC(=O)[C@H](CCCCN)NC(=O)[C@H](CO)NC(=O)[C@H](CC(=O)O)NC(=O)[C@H](CC(C)C)NC(=O)[C@H](Cc1ccc(O)cc1)NC(=O)[C@H](CCCCN)NC(=O)[C@H](CO)NC(=O)[C@H](Cc1ccc(O)cc1)NC(=O)[C@H](CC(=O)O)NC(=O)[C@H](CO)NC(=O)[C@@H](NC(=O)[C@H](Cc1ccccc1)NC(=O)[C@@H](NC(=O)CNC(=O)[C@H](CCC(N)=O)NC(=O)[C@H](CO)NC(=O)[C@@H](N)Cc1c[nH]cn1)[C@@H](C)O)[C@@H](C)O)C(=O)N[C@@H](CC(=O)O)C(=O)N[C@@H](Cc1ccccc1)C(=O)N[C@H](C(=O)N[C@@H](CCC(=O)O)C(=O)N[C@@H](Cc1c[nH]c2ccccc12)C(=O)N[C@@H](CC(C)C)C(=O)N[C@@H](CC(C)C)C(=O)N[C@@H](CCCNC(=N)N)C(=O)N[C@@H](C)C(N)=O)C(C)C)C(=O)O` [Compound 204] (H-HSQGTFTSDYSKYLDSKAAK([γGlu-Palmitoyl])DFVEWLLRA-NH2), for which the EC50 came to 0.1 nM at human GLP-1R and 0.04 nM on human glucagon receptor.

With `CCCCCCCCCCCCCCCC(=O)N[C@@H](CCC(=O)NCCCC[C@H](NC(=O)[C@H](CC(C)C)NC(=O)[C@H](CC(C)C)NC(=O)[C@H](Cc1c[nH]c2ccccc12)NC(=O)[C@H](CCC(=O)O)NC(=O)[C@@H](NC(=O)[C@H](Cc1ccccc1)NC(=O)[C@H](CC(=O)O)NC(=O)[C@H](Cc1c[nH]cn1)NC(=O)[C@H](C)NC(=O)[C@H](C)NC(=O)[C@H](CCCCN)NC(=O)[C@H](CO)NC(=O)[C@H](CC(=O)O)NC(=O)[C@H](CC(C)C)NC(=O)[C@H](Cc1ccc(O)cc1)NC(=O)[C@H](CCCCN)NC(=O)[C@H](CO)NC(=O)[C@H](Cc1ccc(O)cc1)NC(=O)[C@H](CC(=O)O)NC(=O)[C@H](CO)NC(=O)[C@@H](NC(=O)[C@H](Cc1ccccc1)NC(=O)[C@@H](NC(=O)CNC(=O)[C@H](CCC(N)=O)NC(=O)[C@H](CO)NC(=O)[C@@H](N)Cc1c[nH]cn1)[C@@H](C)O)[C@@H](C)O)C(C)C)C(=O)N[C@@H](C)C(N)=O)C(=O)O` [Compound 205] (H-HSQGTFTSDYSKYLDSKAAHDFVEWLLK([γGlu-Palmitoyl])A-NH2), the results for the EC50 at human GLP-1R and at human glucagon receptor were 0.09 nM and 0.1 nM, respectively.

As for `CCCCCCCCCCCCCCCC(=O)N[C@@H](CCC(=O)NCCCC[C@H](NC(=O)[C@H](CO)NC(=O)[C@H](CC(=O)O)NC(=O)[C@H](CC(C)C)NC(=O)[C@H](Cc1ccc(O)cc1)NC(=O)[C@H](CCCCN)NC(=O)[C@H](CO)NC(=O)[C@H](Cc1ccc(O)cc1)NC(=O)[C@H](CC(=O)O)NC(=O)[C@H](CO)NC(=O)[C@@H](NC(=O)[C@H](Cc1ccccc1)NC(=O)[C@@H](NC(=O)CNC(=O)[C@H](CCC(N)=O)NC(=O)C(C)(C)NC(=O)[C@@H](N)Cc1c[nH]cn1)[C@@H](C)O)[C@@H](C)O)C(=O)N[C@@H](C)C(=O)N[C@@H](C)C(=O)N[C@@H](Cc1c[nH]cn1)C(=O)N[C@@H](CC(=O)O)C(=O)N[C@@H](Cc1ccccc1)C(=O)N[C@H](C(=O)N[C@@H](CCC(=O)O)C(=O)N[C@@H](Cc1c[nH]c2ccccc12)C(=O)N[C@@H](CC(C)C)C(=O)N[C@@H](CC(C)C)C(=O)N[C@@H](CO)C(=O)N[C@@H](C)C(N)=O)C(C)C)C(=O)O` [Compound 208], the EC50 at human GLP-1R is 0.11 nM; on human glucagon receptor, 0.16 nM.

With `CC(C)C[C@H](NC(=O)[C@H](Cc1ccc(O)cc1)NC(=O)[C@H](CCCCN)NC(=O)[C@H](CO)NC(=O)[C@H](Cc1ccc(O)cc1)NC(=O)[C@H](CC(=O)O)NC(=O)[C@H](CO)NC(=O)[C@@H](NC(=O)[C@H](Cc1ccccc1)NC(=O)[C@@H](NC(=O)CNC(=O)[C@H](CCC(N)=O)NC(=O)[C@H](CO)NC(=O)[C@@H](N)Cc1c[nH]cn1)[C@@H](C)O)[C@@H](C)O)C(=O)N[C@@H](CC(=O)O)C(=O)N[C@@H](CO)C(=O)N[C@@H](CCCNC(=N)N)C(=O)N[C@@H](CCCNC(=N)N)C(=O)N[C@@H](C)C(=O)N[C@@H](CCC(N)=O)C(=O)N[C@@H](CC(=O)O)C(=O)N[C@@H](Cc1ccccc1)C(=O)N[C@H](C(=O)N[C@@H](Cc1c[nH]c2ccccc12)C(=O)N[C@@H](CC(C)C)C(=O)N[C@@H](CCC(=O)O)C(=O)N[C@@H](CO)C(=O)N[C@@H](C)C(N)=O)C(C)C` [Compound 248], the EC50 on human GLP-1R is 0.5 nM; at human glucagon receptor, 0.1 nM.

`CC(C)C[C@H](NC(=O)[C@H](Cc1ccc(O)cc1)NC(=O)[C@H](CCCCN)NC(=O)[C@H](CO)NC(=O)[C@H](Cc1ccc(O)cc1)NC(=O)[C@H](CC(=O)O)NC(=O)[C@H](CO)NC(=O)[C@@H](NC(=O)[C@H](Cc1ccccc1)NC(=O)[C@@H](NC(=O)CNC(=O)[C@H](CCC(N)=O)NC(=O)[C@H](CO)NC(=O)[C@@H](N)Cc1c[nH]cn1)[C@@H](C)O)[C@@H](C)O)C(=O)N[C@@H](CC(=O)O)C(=O)N[C@@H](CO)C(=O)N[C@@H](CCCNC(=N)N)C(=O)N[C@@H](CCCNC(=N)N)C(=O)N[C@@H](C)C(=O)N[C@@H](CCC(N)=O)C(=O)N[C@@H](CC(=O)O)C(=O)N[C@@H](Cc1ccccc1)C(=O)N[C@H](C(=O)N[C@@H](Cc1c[nH]c2ccccc12)C(=O)N[C@@H](CC(C)C)C(=O)N[C@@H](CCCCN)C(=O)N[C@@H](CO)C(=O)N[C@@H](C)C(N)=O)C(C)C` [Compound 249]: the concentration for a half-maximal effect (EC50) on human GLP-1R and at human glucagon receptor was 0.1 nM throughout.

As for `CC(C)C[C@H](NC(=O)[C@H](Cc1ccc(O)cc1)NC(=O)[C@H](CCCCN)NC(=O)[C@H](CO)NC(=O)[C@H](Cc1ccc(O)cc1)NC(=O)[C@H](CC(=O)O)NC(=O)[C@H](CO)NC(=O)[C@@H](NC(=O)[C@H](Cc1ccccc1)NC(=O)[C@@H](NC(=O)CNC(=O)[C@H](CCC(N)=O)NC(=O)[C@H](CO)NC(=O)[C@@H](N)Cc1c[nH]cn1)[C@@H](C)O)[C@@H](C)O)C(=O)N[C@@H](CC(=O)O)C(=O)N[C@@H](CO)C(=O)N[C@@H](CCCNC(=N)N)C(=O)N[C@@H](CCCNC(=N)N)C(=O)N[C@@H](C)C(=O)N[C@@H](CCC(N)=O)C(=O)N[C@@H](CC(=O)O)C(=O)N[C@@H](Cc1ccccc1)C(=O)N[C@H](C(=O)N[C@@H](Cc1c[nH]c2ccccc12)C(=O)N[C@@H](CC(C)C)C(=O)N[C@@H](CCCCN)C(=O)N[C@@H](CCCNC(=N)N)C(=O)N[C@@H](C)C(N)=O)C(C)C` [Compound 250], the EC50 at human GLP-1R stood at 0.3 nM; at human glucagon receptor it was 0.1 nM.

Turning to `CC(C)C[C@H](NC(=O)[C@H](Cc1ccc(O)cc1)NC(=O)[C@H](CCCCN)NC(=O)[C@H](CO)NC(=O)[C@H](Cc1ccc(O)cc1)NC(=O)[C@H](CC(=O)O)NC(=O)[C@H](CO)NC(=O)[C@@H](NC(=O)[C@H](Cc1ccccc1)NC(=O)[C@@H](NC(=O)CNC(=O)[C@H](CCC(N)=O)NC(=O)[C@H](CO)NC(=O)[C@@H](N)Cc1c[nH]cn1)[C@@H](C)O)[C@@H](C)O)C(=O)N[C@@H](CC(=O)O)C(=O)N[C@@H](CO)C(=O)N[C@@H](CCCNC(=N)N)C(=O)N[C@@H](CCCNC(=N)N)C(=O)N[C@@H](C)C(=O)N[C@@H](CCC(N)=O)C(=O)N[C@@H](CC(=O)O)C(=O)N[C@@H](Cc1ccccc1)C(=O)N[C@H](C(=O)N[C@@H](Cc1c[nH]c2ccccc12)C(=O)N[C@@H](CC(C)C)C(=O)N[C@@H](CCC(=O)O)C(=O)N[C@@H](CCCNC(=N)N)C(=O)N[C@@H](C)C(N)=O)C(C)C` [Compound 251], the results for the EC50 on human GLP-1R and on human glucagon receptor were 0.2 nM and 0.1 nM, respectively.

Regarding `CC(C)C[C@@H]1NC(=O)[C@H](CC(C)C)NC(=O)[C@H](Cc2c[nH]c3ccccc23)NC(=O)[C@@H](NC(=O)[C@@H](NC(=O)[C@H](Cc2ccccc2)NC(=O)[C@H](CC(=O)O)NC(=O)[C@H](Cc2c[nH]cn2)NC(=O)[C@H](C)NC(=O)[C@H](C)NC(=O)[C@H](CCCCN)NC(=O)[C@H](CO)NC(=O)[C@H](CC(=O)O)NC(=O)[C@H](CC(C)C)NC(=O)[C@H](Cc2ccc(O)cc2)NC(=O)[C@H](CCCCN)NC(=O)[C@H](CO)NC(=O)[C@H](Cc2ccc(O)cc2)NC(=O)[C@H](CC(=O)O)NC(=O)[C@H](CO)NC(=O)[C@@H](NC(=O)[C@H](Cc2ccccc2)NC(=O)[C@@H](NC(=O)CNC(=O)[C@H](CCC(N)=O)NC(=O)[C@H](CO)NC(=O)[C@@H](N)Cc2c[nH]cn2)[C@@H](C)O)[C@@H](C)O)C(C)C)CCC(=O)NCCCC[C@@H](C(=O)N[C@@H](C)C(N)=O)NC1=O` [Compound 261] (H-HSQGTFTSDYSKYLDSKAAHDFVEWLLKA-NH2; lactam 24-28), the figures for the half-maximal effective concentration (EC50) at human GLP-1R and at human glucagon receptor were 0.03 nM and 0.07 nM, respectively.
